Active and inactive are the calls of the source. No cut-off for these calls is given here.
What was measured:
MDA-MB-231 [1] = test: Induction of apoptosis in human MDA-MB-231 cells assessed as early apoptotic cells at 40 uM measured after 72 hrs by annexinV-FITC/propidium iodide staining based flow cytometry (reference value: 5.3 %); assay type: functional
MDA-MB-231 [2] = test: Antiproliferative activity against human MDA-MB-231 cells harboring empty pcDNA3.1 vector at 20 uM measured after 72 hrs by MTS assay; assay type: functional, cell-based
MDA-MB-468 [3] = test: Antiproliferative activity against human MDA-MB-468 cells harboring empty pcDNA3.1 vector at 10 uM measured after 72 hrs by MTS assay; assay type: functional, cell-based
MDA-MB-231 [4] = test: Antiproliferative activity against human MDA-MB-231 cells harboring beta-catenin pcDNA3.1 vector at 20 uM measured after 72 hrs by MTS assay; assay type: functional, cell-based
MDA-MB-468 [5] = test: Antiproliferative activity against human MDA-MB-468 cells harboring beta-catenin pcDNA3.1 vector at 20 uM measured after 72 hrs by MTS assay; assay type: functional, cell-based
MDA-MB-231 [6] = test: Induction of apoptosis in human MDA-MB-231 cells assessed as early apoptotic cells at 10 uM measured after 72 hrs by annexinV-FITC/propidium iodide staining based flow cytometry (reference value: 5.3 %); assay type: functional
MDA-MB-468 [7] = test: Induction of apoptosis in human MDA-MB-468 cells assessed as early apoptotic cells at 10 uM measured after 72 hrs by annexinV-FITC/propidium iodide staining based flow cytometry (reference value: 28.9 %); assay type: functional
MDA-MB-468 [8] = test: Induction of apoptosis in human MDA-MB-468 cells assessed as late apoptotic cells at 10 uM measured after 72 hrs by annexinV-FITC/propidium iodide staining based flow cytometry (reference value: 13.9 %); assay type: functional
MDA-MB-468 [9] = test: Induction of apoptosis in human MDA-MB-468 cells assessed as early apoptotic cells at 20 uM measured after 72 hrs by annexinV-FITC/propidium iodide staining based flow cytometry (reference value: 28.9 %); assay type: functional
MCF-10A [10] = test: Induction of apoptosis in human MCF-10A cells assessed as early apoptotic cells at 10 uM measured after 72 hrs by annexinV-FITC/propidium iodide staining based flow cytometry (reference value: 28.9 %); assay type: cell-based
MCF-10A [11] = test: Induction of apoptosis in human MCF-10A cells assessed as late apoptotic cells at 10 uM measured after 72 hrs by annexinV-FITC/propidium iodide staining based flow cytometry (reference value: 13.9 %); assay type: cell-based
MCF-10A [12] = test: Induction of apoptosis in human MCF-10A cells assessed as late apoptotic cells at 20 uM measured after 72 hrs by annexinV-FITC/propidium iodide staining based flow cytometry (reference value: 13.9 %); assay type: cell-based
MCF-10A [13] = test: Induction of apoptosis in human MCF-10A cells assessed as early apoptotic cells at 40 uM measured after 72 hrs by annexinV-FITC/propidium iodide staining based flow cytometry (reference value: 28.9 %); assay type: cell-based
MCF-10A [14] = test: Induction of apoptosis in human MCF-10A cells assessed as late apoptotic cells at 40 uM measured after 72 hrs by annexinV-FITC/propidium iodide staining based flow cytometry (reference value: 13.9 %); assay type: cell-based
[15] = Aqueous solubility of the compound; assay type: physicochemical; settings: buffer
[16] = Solubility of the compound in 0.9% NaCl at 2 mg/ml; assay type: physicochemical
[17] = Solubility of the compound in DMSO/Tween-80/H2O (10/10/80) at 2 mg/ml; assay type: physicochemical
[18] = Half life in human liver microsomes at 1 uM measured up to 60 mins in presence of NADPH by LC-MS/SM analysis; assay type: ADME, Microsome; settings: 1 h
[19] = Intrinsic clearance in human liver microsomes at 1 uM measured up to 60 mins in presence of NADPH by LC-MS/SM analysis; assay type: ADME, Microsome
[20] = Intrinsic clearance in mouse liver microsomes at 1 uM measured up to 60 mins in presence of NADPH by LC-MS/SM analysis; assay type: ADME, Microsome; settings: 1 h
[21] = Cmax in C57BL/6 mouse at 1 mg/kg, iv measured after 5 mins by LC-MS/MS analysis; assay type: ADME, organism-based; design: route intravenous, dose 1 mg/kg, time 5 min; settings: in vivo
[22] = AUC in C57BL/6 mouse at 1 mg/kg, iv measured after 5 mins by LC-MS/MS analysis; assay type: ADME, organism-based; design: route intravenous, dose 1 mg/kg, time 5 min; settings: in vivo
[23] = Volume of distribution in C57BL/6 mouse at 1 mg/kg, iv measured after 5 mins by LC-MS/MS analysis; assay type: ADME, organism-based; settings: in vivo
[24] = Cmax in C57BL/6 mouse at 20 mg/kg, po via gavage measured up to 24 hrs by LC-MS/MS analysis; assay type: ADME, organism-based; design: route oral, dose 20 mg/kg, time <=24; settings: in vivo
[25] = Clearance in C57BL/6 mouse at 20 mg/kg, po via gavage measured up to 24 hrs by LC-MS/MS analysis; assay type: ADME, organism-based; settings: in vivo
[26] = Half life in C57BL/6 mouse at 20 mg/kg, po via gavage measured up to 24 hrs by LC-MS/MS analysis; assay type: ADME, organism-based; settings: in vivo
[27] = Oral bioavailability in C57BL/6 mouse at 20 mg/kg measured up to 24 hrs by LC-MS/MS analysis; assay type: ADME, organism-based; settings: in vivo
MDA-MB-231 [28] = test: Antiinvasive activity against human MDA-MB-231 cells cultured as 3D-spheroids at 10 uM measured after 6 days by imaging analysis relative to control; assay type: functional; settings: time 6 day
MDA-MB-231 [29] = test: Antiinvasive activity against human MDA-MB-231 cells cultured as 3D-spheroids measured after 6 days by imaging analysis; assay type: functional, cell-based; settings: dose 5-40 µM, time 6.0 day
4013 = test: Antitumor activity against patient-derived 4013 cells orthotopically xenografted in SCID-Beige mouse assessed as reduction in tumor weight at 90 mg/kg, po via gavage for 5 days; assay type: functional, organism-based; settings: Homo sapiens, time 5.0 day
SW480 [30] = test: Inhibition of Wnt/beta-catenin transactivation signalling in human SW480 cells assessed as relative activity at 1.56 uM measured after 24 hrs by TOPFlash reporter gene assay relative to control; assay type: cell-based; design: scale not given: the % may be the effect or the level left
MDA-MB-468 [31] = test: Inhibition of Wnt/beta-catenin transactivation signalling in Wnt3a stimulated human MDA-MB-468 cells assessed as relative activity at 6.25 uM measured after 24 hrs by TOPFlash reporter gene assay relative to control; assay type: cell-based; design: scale not given: the % may be the effect or the level left
Mus musculus [32] = species: Mus musculus; settings: dose 90.0 mg/kg, time 5.0 day
Mus musculus [33] = species: Mus musculus; settings: dose 90.0 mg/kg, time 5.0 day; remark: listed apart in the source
Mus musculus [34] = species: Mus musculus; settings: dose 90.0 mg/kg, time 5.0 day; remark: listed apart in the source
Mus musculus [35] = species: Mus musculus; settings: dose 90.0 mg/kg, time 5.0 day; remark: listed apart in the source
MDA-MB-468 [36] = test: cells; settings: Homo sapiens, MDA-MB-468, 72 h
Description: Antiproliferative activity against human MDA-MB-468 cells assessed as cell growth inhibition measured after 72 hrs by MTS assay

SW480 [37] = test: cells; settings: Homo sapiens, SW480, 72 h
Description: Antiproliferative activity against human SW480 cells assessed as cell growth inhibition measured after 72 hrs by MTS assay

HCT-116 = test: cells; settings: Homo sapiens, HCT-116, 72 h
Description: Antiproliferative activity against human HCT-116 cells assessed as cell growth inhibition measured after 72 hrs by MTS assay

MCF-10A [38] = test: cells; settings: Homo sapiens, 72 h
Description: Cytotoxicity against human MCF-10A cells assessed as cell growth inhibition measured after 72 hrs by MTS assay

MDA-MB-231 [39] = test: Downregulation of HPRT mRNA expression in Wnt3a stimulated human MDA-MB-231 cells at 10 to 40 uM measured after 24 hrs by qRT-PCR analysis; settings: dose 10-40 µM

Structure (SMILES): CC(C)(Oc1cccc(N2CCC[C@@H](C(=O)N(Cc3ccc(-c4cn[nH]c4)cc3)C3CC3)C2)c1)C(=O)N1CCNCC1.Cl
- Activity (MDA-MB-231 [1]): 53.1%
- Activity (MDA-MB-231 [2]): Active
- Activity (MDA-MB-468 [3]): Active
- Activity (MDA-MB-231 [4]): inactive
- Activity (MDA-MB-468 [5]): inactive
- Activity (MDA-MB-231 [6]): 5.4%
- Activity (MDA-MB-468 [7]): 17.5%
- Activity (MDA-MB-468 [8]): 17.6%
- Activity (MDA-MB-468 [9]): 34.6%
- Activity (MCF-10A [10]): 1.9%
- Activity (MCF-10A [11]): 12.3%
- Activity (MCF-10A [12]): 17.3%
- Activity (MCF-10A [13]): 3.9%
- Activity (MCF-10A [14]): 15.3%
- solubility [15]: > 3000 µM
- solubility [16]: Soluble
- solubility [17]: Soluble
- t1/2 [18]: 0.64 h
- CLint at 1 h, 1 µM [19]: 18 µL/min/mg
- CLint [20]: 72 µL/min/mg
- Cmax [21]: 790 nM
- AUC [22]: 0.71 µM·h
- Vd [23]: 8 L/kg
- Cmax [24]: 3210 nM
- CL/F [25]: 51.1 mL/min/kg
- t1/2 [26]: 3.07 h
- F [27]: 83%
- Activity (MDA-MB-231 [28]): 47.5%
- Activity (MDA-MB-231 [29]): Dose-Dependent Effect
- Activity 4013: inactive
- Activity (SW480 [30]): 95%
- Activity (MDA-MB-468 [31]): 102%
- inhibition (Mus musculus [32]): Active
- inhibition (Mus musculus [33]): Active
- inhibition (Mus musculus [34]): Active
- inhibition (Mus musculus [35]): Active
- IC50 (MDA-MB-468 [36]): 9.6 µM
- IC50 (SW480 [37]): 24 µM
- IC50 (HCT-116): 76 µM
- IC50 (MCF-10A [38]): 92 µM
- Activity (MDA-MB-231 [39]): inactive

Reference: ChEMBL document CHEMBL4840323, “Discovery of an Orally Bioavailable Small-Molecule Inhibitor for the β-Catenin/B-Cell Lymphoma 9 Protein-Protein Interaction” (J Med Chem, 2021)
